The results in this text go back to patent publication USH1551H, “Topical composition and method for reducing hair loss from human scalp” (priority 1982, dated 1996).

The target of series [1] is T1, testosterone-5α-reductase (Mesocricetus auratus, UniProt C7T2J7).
T1 construct: by using the sebaceous gland at the back of a hamster; from tissue; host or cells: sebaceous gland at the back of a hamster
T1 sequence (C7T2J7 1-255): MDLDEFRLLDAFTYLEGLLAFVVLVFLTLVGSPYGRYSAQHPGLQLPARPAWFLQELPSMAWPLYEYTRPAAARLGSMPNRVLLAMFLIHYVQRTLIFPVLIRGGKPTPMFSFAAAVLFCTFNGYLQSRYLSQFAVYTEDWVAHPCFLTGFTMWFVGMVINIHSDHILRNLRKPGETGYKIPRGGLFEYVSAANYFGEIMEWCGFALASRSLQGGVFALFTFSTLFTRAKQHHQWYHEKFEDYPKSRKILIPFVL
The series is described as follows: Inhibitory effect on the reductase activity (testosterone reduced to 5α-DHT, hamster sebaceous gland). It is filed as biochemical. To be noted: for inhibition at 100 µM: 10^-4 molar concentration; for inhibition at 100 µM / inhibition at 10 µM: read-out: Rate of inhibition (reductase activity); for inhibition at 10 µM: 10^-5 molar concentration. How it is done: Based on the method of Takayasu et al. (The Nishinihon Journal of Dermatology, 43, 1215-1217, 1981), the amount of testosterone reduced to 5α-DHT was measured by using the sebaceous gland at the back of a hamster. The concentrations of the samples used in the experiment were 10^-4 and 10^-5 molar concentrations, respectively. The rate of inhibition was calculated from the following equation using the resulting data.
Rate of inhibition (%)=(C-t/C) ×100
C: the amount of 5α-DHT formed in a control
t: the amount of 5α-DHT formed when the sample was added

Another series relates to 5α-DHT receptor protein. Nature of the series: Inhibitory effect on binding of 5α-DHT with the receptor protein. Conditions: for Rate of inhibition (binding of 5α-DHT with the receptor protein): 10^-6 molar concentration. How it is done:
Based on the method of Takayasu et al. (Arch. Dermatol. Res., 264, 50-51, 1979), the amount of 5α-DHT bound with the receptor protein was measured. The concentration of the sample used in the experiment was 10^-6 molar concentration. The rate of inhibition was calculated from the following equation using the resulting data.
Rate of inhibition (%)=(C-t/C)×100
C: the amount of 5α-DHT bound with the receptor protein in a control
t: the amount of 5α-DHT bound with the receptor protein when the sample was added

The nature of series [2]: Acute toxicity (LD50) of oxendolone, mouse. Conditions: in vivo. The text has this: (§1) The systemic acute toxicity of oxendolone is as follows:
(§2) Acute Toxicity (LD50 : mg/kg)

Series [3] is described as follows: Acute toxicity (LD50) of oxendolone, rat. Conditions: in vivo.
Text: as §1, §2

A further series deals with hair and scalp. Nature of the series: Toxicity test of the present hair grower (local application). It is filed as in vivo, human. To be noted: 0.2% ethanol solution.
Series [4] concerns uptake of testosterone into the cells. Nature of the series: Inhibition of uptake of testosterone into the cells. It is filed as cell-based.
The subject of series [5] is head sebum / basal cells of hair. Nature of the series: Decrease of head sebum and mitosis of basal cells of hair. Conditions: coupled with the defatting actions of ethanol.
Series [6] deals with MPB (male pattern baldness). Nature of the series: Clinical cases, male pattern baldness (MPB), topical application. Type of series: in vivo, human. To be noted: The patient; Resorcinol and other lotions for application. The text has this:
The following preparations were used in the tests (1)-(22). MPB represents male pattern baldness.

SMILES strings stand for the structures.

Regarding `C[C@]12CC[C@H]3[C@@H](CCC4=CC(=O)CC[C@@]43C)[C@@H]1CC[C@@H]2C(=O)O` [4-androsten-3-one-17β-carboxylic acid], in series [1], the inhibition at 100 µM was determined as 54 ± 32% and the inhibition at 10 µM turned out to be 31 ± 19%. In addition, the “Rate of inhibition (binding of 5α-DHT with the receptor protein)” value in the series on 5α-DHT receptor protein stood at 0%.

Consider `CC[C@H]1C[C@H]2[C@@H]3CCC4=CC(=O)CC[C@@H]4[C@H]3CC[C@]2(C)[C@H]1O` [Oxendolone, 16β-ethyl-17β-hydroxy-4-estren-3-one], for which the LD50 was over 10000 mg/kg in series [2] (im, female, intramuscular); over 10000 mg/kg in [2] (im, male, intramuscular); 2980 mg/kg in [2] (ip, female, intraperitoneal); 2930 mg/kg in series [2] (ip, male, intraperitoneal); over 10000 mg/kg in [3] (im, female, intramuscular); over 10000 mg/kg in series [3] (im, male, intramuscular). The LD50 in [3] (ip, female, intraperitoneal) was 5880 mg/kg; in [3] (ip, male, intraperitoneal), 6530 mg/kg. The inhibition at 100 µM in series [1] is 43 ± 18%. In addition, the inhibition at 10 µM in series [1] came to 28 ± 28%. Also, the “inhibitory effect on the reductase activity compared with 4-androsten-3-one-17β-carboxylic acid” value in [1] (comparison, Table 1) is listed as “equivalent inhibitory effect on the reductase activity”. Also, in the series on 5α-DHT receptor protein, the “Rate of inhibition (binding of 5α-DHT with the receptor protein)” value came out at 53%. For the same molecule, the “inhibitory effect on the binding of 5α-DHT with the receptor protein compared with 4-androsten-3-one-17β-carboxylic acid” value in the series with 5α-DHT receptor protein (comparison, Table 2) is listed as “greater”. Besides, the local acute toxicity result with hair and scalp (0.05 ml/cm^2, several times a day) is given as “No local acute toxicity was observed”. In addition, the “other systemic or local side effect” value with hair and scalp (in the application schedule) is given as “No other systemic or local side effect was observed”. Besides, the “inhibition of uptake of testosterone into the cells” value in series [4] was “inhibit uptake of testosterone into the cells”. Further, in [5], the “decrease of head sebum and mitosis of basal cells of hair” value was “synergistically produce a decrease of head sebum and promote the mitosis of basal cells of hair”. The solubility in ethanol result in “Solubility of oxendolone” (ethanol) is “soluble”. For the same molecule, in the series “Solubility of oxendolone” (vegetable oils etc.), the “solubility in vegetable oils, squalane, alcohols, fatty acids, silicone oils, etc.” value is given as “dissolved totally or partially”. In addition, in “Solubility of oxendolone” (water), the solubility in water result is listed as “practically insoluble”.

`Oc1cccc(O)c1` [Resorcinol]: in series [6], the “effect of previous treatment, case (9)” value was “no appreciable change”.
